Assay [1] concerns the target T1, unphosphorylated c-FMS kinase (uFMS, Seq. ID no. 1) (Homo sapiens, UniProt P07333).
T1 construct: purchased Millipore
T1 sequence (P07333 538-972): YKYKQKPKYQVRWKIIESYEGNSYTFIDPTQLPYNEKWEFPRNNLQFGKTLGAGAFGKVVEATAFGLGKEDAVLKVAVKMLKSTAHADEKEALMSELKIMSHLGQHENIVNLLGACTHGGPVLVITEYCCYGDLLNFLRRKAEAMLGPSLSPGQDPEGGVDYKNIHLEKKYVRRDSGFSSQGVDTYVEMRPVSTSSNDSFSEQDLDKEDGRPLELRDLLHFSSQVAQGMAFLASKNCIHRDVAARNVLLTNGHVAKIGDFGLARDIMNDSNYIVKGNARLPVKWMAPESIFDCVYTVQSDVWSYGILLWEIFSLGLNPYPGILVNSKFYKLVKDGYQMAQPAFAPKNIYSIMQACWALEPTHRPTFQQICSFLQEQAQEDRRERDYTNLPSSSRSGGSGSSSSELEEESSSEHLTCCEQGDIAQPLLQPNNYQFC
The assay can be described thus: uFMS kinase enzymatic assay (pyruvate kinase/lactate dehydrogenase coupled). It is filed as biochemical. As to conditions: ATP 500 μM, rate 3 to 4 h. How it is done:
uFMS Kinase (Seq. ID No. 1) Assay
Activity of unphosphorylated c-FMS kinase (uFMS, Seq. ID no. 1) was determined by following the production of ADP from the FMS kinase reaction with ATP and poly E4Y as substrates through coupling with the pyruvate kinase/lactate dehydrogenase system (e.g., Schindler et al. Science (2000) 289: 1938-1942). In this assay, the oxidation of NADH (thus the decrease at A340 nm) was continuously monitored spectrophometrically. The reaction mixture (100 μL) contained FMS (purchased from Millipore) (10 nM), polyE4Y (1 mg/mL), MgCl2 (10 mM), pyruvate kinase (4 units), lactate dehydrogenase (0.7 units), phosphoenol pyruvate (1 mM), NADH (0.28 mM) and ATP (500 μM) in 90 mM Tris buffer containing 0.2% octyl-glucoside and 1% DMSO, pH 7.5. The inhibition reaction was started by mixing serial diluted test compound with the above reaction mixture. The absorption at 340 nm was monitored continuously for 4 hours at 30° C. on Synergy 2 plate reader. The reaction rate was calculated using the 3 to 4 h time frame. Percent inhibition was obtained by comparison of reaction rate with that of a control (i.e. in the absence of test compound). IC50 values were calculated from a series of percent inhibition values determined at a range of inhibitor concentrations using software routines as implemented in the GraphPad Prism software package.

In assay [2] the target is T2, unphosphorylated c-KIT kinase (uKIT, Seq. ID no. 2) (Homo sapiens, UniProt P10721).
T2 construct: uKit with N-terminal GST fusion used for screening
T2 sequence (P10721 with tags, fused parts or gaps): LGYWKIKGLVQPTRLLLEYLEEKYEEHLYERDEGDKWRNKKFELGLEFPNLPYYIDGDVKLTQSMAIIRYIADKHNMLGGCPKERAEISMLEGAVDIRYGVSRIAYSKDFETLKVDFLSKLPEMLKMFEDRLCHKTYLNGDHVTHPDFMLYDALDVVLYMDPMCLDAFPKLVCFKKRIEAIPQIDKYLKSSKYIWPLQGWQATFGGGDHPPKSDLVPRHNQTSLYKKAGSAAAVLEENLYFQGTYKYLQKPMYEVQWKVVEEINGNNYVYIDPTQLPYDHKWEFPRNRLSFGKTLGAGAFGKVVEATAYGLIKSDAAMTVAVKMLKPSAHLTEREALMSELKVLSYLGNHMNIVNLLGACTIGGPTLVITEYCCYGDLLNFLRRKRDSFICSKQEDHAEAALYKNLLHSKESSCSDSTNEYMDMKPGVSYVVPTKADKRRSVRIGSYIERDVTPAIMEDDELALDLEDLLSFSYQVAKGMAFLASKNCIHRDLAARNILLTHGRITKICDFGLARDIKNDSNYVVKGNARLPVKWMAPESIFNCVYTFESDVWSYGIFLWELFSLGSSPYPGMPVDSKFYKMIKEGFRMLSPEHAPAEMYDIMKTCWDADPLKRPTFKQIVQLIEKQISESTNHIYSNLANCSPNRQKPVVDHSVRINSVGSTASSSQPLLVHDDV
The assay can be described thus: uKit kinase enzymatic assay (pyruvate kinase/lactate dehydrogenase coupled). The assay is classed as biochemical. The settings on record: ATP 2000 μM, rate 3 to 4 h. Here is the method: uKit Kinase (Seq. ID No. 2) Assay
Activity of unphosphorylated c-KIT kinase (uKIT, Seq. ID no. 2) was determined by following the production of ADP from the KIT kinase reaction with ATP and poly E4Y as substrates through coupling with the pyruvate kinase/lactate dehydrogenase system (e.g., Schindler et al. Science (2000) 289: 1938-1942). In this assay, the oxidation of NADH (thus the decrease at A340 nm) was continuously monitored spectrophometrically. The reaction mixture (100 μl) contained unphosphorylated KIT (12 nM), polyE4Y (1 mg/mL), MgCl2 (10 mM), pyruvate kinase (4 units), lactate dehydrogenase (0.7 units), phosphoenol pyruvate (1 mM), and NADH (0.28 mM) and ATP (2000 μM) in 90 mM Tris buffer containing 0.2% octyl-glucoside and 1% DMSO, pH 7.5. The inhibition reaction was started by mixing serial diluted test compound with the above reaction mixture. The absorption at 340 nm was monitored continuously for 4 hours at 30° C. on Synergy 2 plate reader (BioTech). Reaction rates around 3 to 4 h time frame were used to calculate % inhibitions, from which IC50 values were generated.

In assay [3] the target is T3, unphosphorylated PDGFRβ kinase (uPDGFRβ, Seq. ID No. 3) (Homo sapiens, UniProt P09619).
T3 construct: purchased DeCode
T3 sequence (P09619 557-1106): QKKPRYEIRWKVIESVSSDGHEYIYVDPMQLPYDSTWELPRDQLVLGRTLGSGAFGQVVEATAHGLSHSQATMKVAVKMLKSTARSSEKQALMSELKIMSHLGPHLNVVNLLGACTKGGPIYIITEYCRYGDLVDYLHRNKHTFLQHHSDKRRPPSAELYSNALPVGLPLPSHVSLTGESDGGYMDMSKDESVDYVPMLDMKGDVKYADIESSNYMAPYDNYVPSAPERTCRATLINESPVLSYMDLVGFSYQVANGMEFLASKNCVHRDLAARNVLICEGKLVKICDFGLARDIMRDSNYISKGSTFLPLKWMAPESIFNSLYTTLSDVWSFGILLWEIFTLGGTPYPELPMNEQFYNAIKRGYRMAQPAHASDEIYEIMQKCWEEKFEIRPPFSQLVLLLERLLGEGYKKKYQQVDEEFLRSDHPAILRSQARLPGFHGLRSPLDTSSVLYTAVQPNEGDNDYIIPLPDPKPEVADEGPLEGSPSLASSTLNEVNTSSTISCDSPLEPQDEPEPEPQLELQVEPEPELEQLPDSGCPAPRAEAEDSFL
In words: uPDGFRβ kinase enzymatic assay (pyruvate kinase/lactate dehydrogenase coupled). The assay is classed as biochemical. The settings on record: ATP 500 μM, rate 1.5 to 2.5 h. Here is the method: Unphosphorylated PDGFRβ (uPDGFRβ) Kinase (Seq. ID No. 3) Assay
Activity of unphosphorylated PDGFRβ kinase (uPDGFRβ, Seq. ID No. 3) was determined by following the production of ADP from the kinase reaction with ATP and poly E4Y as substrates through coupling with the pyruvate kinase/lactate dehydrogenase system (e.g., Schindler et al. Science (2000) 289: 1938-1942). In this assay, the oxidation of NADH (thus the decrease at A340 nm) was continuously monitored spectrophometrically. The reaction mixture (100 μL) contained PDGFRβ (DeCode, 15.7 nM), polyE4Y (2.5 mg/mL), MgCl2 (10 mM), pyruvate kinase (4 units), lactate dehydrogenase (0.7 units), phosphoenol pyruvate (1 mM) and NADH (0.28 mM) and ATP (500 μM) in a 90 mM Tris buffer containing 0.2% octyl-glucoside and 1% DMSO, at pH 7.5. The inhibition reaction was started by mixing serial diluted test compound with the above reaction mixture. The absorption at 340 nm was monitored continuously for 4 h at 30° C. on a Polarstar Optima or Synergy 2 plate reader. The reaction rate was calculated using the 1.5 to 2.5 h time frame. Percent inhibition was obtained by comparison of reaction rate with that of a control (i.e. with no test compound). IC50 values were calculated from a series of percent inhibition values determined at a range of inhibitor concentrations using software routines as implemented in the GraphPad Prism software package.

The subject of the next assay is M-NFS-60 cells. In words: M-NFS-60 cell proliferation assay (resazurin). It is filed as cell-based. As to conditions: 67 h incubation. How it is done: M-NFS-60 cells (catalog #CRL-1838) were obtained from the American Type Culture Collection (ATCC, Manassas, Va.). Briefly, cells were grown in suspension in RPMI 1640 medium supplemented with 10% characterized fetal bovine serum (Invitrogen, Carlsbad, Calif.), 0.05 mM 2-mercaptoethanol, and 20 ng/mL mouse recombinant macrophage colony stimulating factor (M-CSF) at 37° C., 5% CO2, and 95% humidity. Cells were allowed to expand until reaching saturation at which point they were subcultured or harvested for assay use.
M-NFS-60 Cell Proliferation Assay
A serial dilution of test compound was dispensed into a 384-well black clear bottom plate (Corning, Corning, N.Y.). Two thousand five hundred cells were added per well in 50 μL complete growth medium. Plates were incubated for 67 h at 37° C., 5% CO2, and 95% humidity. At the end of the incubation period 10 μL of a 440 μM solution of resazurin (Sigma, St. Louis, Mo.) in PBS was added to each well and incubated for an additional 5 h at 37° C., 5% CO2, and 95% humidity. Plates were read on a Synergy2 reader (Biotek, Winooski, Vt.) using an excitation of 540 nm and an emission of 600 nm. IC50 values were calculated from a series of percent inhibition values determined at a range of inhibitor concentrations using software routines as implemented in the GraphPad Prism software package.
(Alamar Blue is a resazurin reagent that responds to reducing activity.)

For the next assay, the system named is osteoclast precursors. In words: Osteoclast tartrate-resistant acid phosphatase assay. It is filed as cell-based. The settings on record: RANKL and M-CSF, 7-14 days, tartrate-resistant acid phosphatase activity. Here is the method:
Osteoclast Tartrate-Resistant Acid Phosphatase Assay
A serial dilution of test compound was dispensed into a 384-well black clear bottom plate (Nalge Nunc International, Rochester, N.Y.). Compound was diluted by the addition of DMEM media supplemented with 10% characterized fetal bovine serum (Invitrogen, Carlsbad, Calif.). Diluted compound was transferred to a 384-well black clear bottom plate. Two-thousand five hundred osteoclast precursors (Lonza, Walkersville, Md.) were added per well in growth media containing Receptor Activator of Nuclear Factor Kappa-beta ligand (RANKL) and M-CSF (R&D Systems, Minneapolis, Minn.). Plates were incubated for 7-14 days at 37 degrees Celsius, 5% CO2, and 95% humidity to allow differentiation of osteoclast precursors. At the end of the incubation period, 10 μL of supernatant from each well was transferred to a clear 384-well plate. Tartrate-resistant acid phosphatase activity in the supernatant samples was determined using an acid phosphatase assay kit (Sigma, St. Louis, Mo.). Absorbance was measured at 550 nm using a plate reader. Data was analyzed using Prism software (Graphpad, San Diego, Calif.) to calculate IC50 values.

Some results are limits rather than exact numbers.

As usually defined, the IC50 is the concentration at which inhibition is half-maximal.

Take `Cc1ncc(-c2cc(Oc3ccc(-n4nc(C(C)(C)C)[nH]c4=O)nc3C)ccn2)s1` [Example 12, 3-(tert-butyl)-1-(6-methyl-5-((2-(2-methylthiazol-5-yl)pyridin-4-yl)oxy)pyridin-2-yl)-1H-1,2,4-triazol-5(4H)-one]: the IC50 in assay [1] was 10 to 100 nM; in assay [2], 100 to 1000 nM; in assay [3], > 1000 nM; in the assay with M-NFS-60 cells it was 10 to 100 nM; with osteoclast precursors, 10 to 100 nM.
`CNC(=O)c1cc(Oc2ccc(-n3nc(C(C)(C)C)[nH]c3=O)nc2)ccn1` [Example 26, 4-((6-(3-(tert-butyl)-5-oxo-4,5-dihydro-1H-1,2,4-triazol-1-yl)pyridin-3-yl)oxy)-N-methylpicolinamide]: the IC50 was 10 to 100 nM in assay [1]; > 1000 nM in assay [2]; > 1000 nM in assay [3]; > 1000 nM in the assay on M-NFS-60 cells; 100 to 1000 nM in the assay on osteoclast precursors.
Consider `COCCc1nn(-c2ccc(Oc3ccnc(-c4cnn(C)c4)c3)c(C)n2)c(=O)[nH]1` [Example 15, 3-(2-methoxyethyl)-1-(6-methyl-5-((2-(1-methyl-1H-pyrazol-4-yl)pyridin-4-yl)oxy)pyridin-2-yl)-1H-1,2,4-triazol-5(4H)-one], for which the IC50 is 10 to 100 nM in assay [1]; > 1000 nM in assay [2]; > 1000 nM in assay [3]; > 1000 nM in the assay on M-NFS-60 cells; 100 to 1000 nM with osteoclast precursors.

For the origin of these results see patent publication US9193719B2, “1,2,4-triazol-5-ones and analogs exhibiting anti-cancer and anti-proliferative activities” (Deciphera Pharmaceuticals, LLC, priority 2013, dated 2015).
